Measurements as given in publication PMC9270327 (Communications Biology, 2022).
Counter-ions that a name gives are not always drawn. Like-named read-outs stand apart in the source and are kept apart here.

Assays:
[1] = biological target: T1, recombinant human matriptase (Homo sapiens, UniProt Q9Y5Y6); assay: Enzyme inhibition assay with purified matriptase (Ki, dose-response); type: biochemical; conditions: for matriptase activity, Mean (Fig. 2b): normalized, 0 nM = 100
T1 construct: purchased R&D Systems (Minneapolis, MN, USA)
T1 sequence (Q9Y5Y6 1-855): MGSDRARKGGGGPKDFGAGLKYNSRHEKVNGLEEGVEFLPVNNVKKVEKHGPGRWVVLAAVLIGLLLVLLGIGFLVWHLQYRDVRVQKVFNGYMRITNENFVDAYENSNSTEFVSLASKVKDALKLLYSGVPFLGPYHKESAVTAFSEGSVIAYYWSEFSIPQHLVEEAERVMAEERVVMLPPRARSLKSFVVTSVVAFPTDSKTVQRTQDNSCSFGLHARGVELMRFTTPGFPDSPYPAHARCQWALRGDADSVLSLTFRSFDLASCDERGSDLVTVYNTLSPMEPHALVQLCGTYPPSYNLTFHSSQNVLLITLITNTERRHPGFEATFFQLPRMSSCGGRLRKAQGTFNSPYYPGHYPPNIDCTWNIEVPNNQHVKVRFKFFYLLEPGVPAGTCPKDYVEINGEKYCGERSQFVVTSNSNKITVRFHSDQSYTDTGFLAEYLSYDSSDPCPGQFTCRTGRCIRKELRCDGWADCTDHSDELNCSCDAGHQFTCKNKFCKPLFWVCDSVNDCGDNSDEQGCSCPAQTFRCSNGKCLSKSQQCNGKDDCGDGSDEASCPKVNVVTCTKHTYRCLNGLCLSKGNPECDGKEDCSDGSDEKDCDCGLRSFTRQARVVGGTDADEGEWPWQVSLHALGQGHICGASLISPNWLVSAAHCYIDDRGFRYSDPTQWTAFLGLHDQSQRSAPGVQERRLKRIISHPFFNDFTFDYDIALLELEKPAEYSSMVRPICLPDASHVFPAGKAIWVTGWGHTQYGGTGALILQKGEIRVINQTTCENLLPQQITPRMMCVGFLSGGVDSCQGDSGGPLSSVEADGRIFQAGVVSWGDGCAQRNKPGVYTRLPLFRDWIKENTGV

TMPRSS2 = TMPRSS2 (Homo sapiens, UniProt O15393); assay: Cell culture medium stability: residual TMPRSS2 inhibition after incubation in medium
Sequence of TMPRSS2 (O15393 whole entry): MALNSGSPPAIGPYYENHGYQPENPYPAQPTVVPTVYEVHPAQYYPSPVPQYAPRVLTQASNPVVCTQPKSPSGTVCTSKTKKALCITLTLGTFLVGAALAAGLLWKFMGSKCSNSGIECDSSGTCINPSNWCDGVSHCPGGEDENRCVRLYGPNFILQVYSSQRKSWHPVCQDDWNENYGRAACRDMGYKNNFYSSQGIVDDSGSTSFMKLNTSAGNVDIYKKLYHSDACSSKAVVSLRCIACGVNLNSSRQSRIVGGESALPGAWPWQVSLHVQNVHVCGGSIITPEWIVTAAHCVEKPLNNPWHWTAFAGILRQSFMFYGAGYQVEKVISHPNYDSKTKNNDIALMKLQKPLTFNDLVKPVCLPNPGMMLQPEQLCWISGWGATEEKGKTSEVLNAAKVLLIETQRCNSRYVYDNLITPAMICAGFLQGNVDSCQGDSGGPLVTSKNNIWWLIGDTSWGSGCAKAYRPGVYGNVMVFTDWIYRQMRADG
Procedure: The activity of the compounds against the recombinant human enzymes was determined in enzyme inhibition assays. […] The measurements were performed on a Tecan infinite® M1000 and the fluorescence intensity was measured by exciting the AMC fluorophore at 380 nm wavelength and recording emission at 460 nm wavelength. […] Fluorescence intensities and absorption were measured every 2 min for 2 h or as endpoint after 2 h. […] To determine the IC50 values, the concentration-response data were plotted with the program GraphPad prism version 8.4.2 (San Diego, California) and a nonlinear regression fit with the equation [Inhibitor] vs. normalized response was applied. The inhibitory constant Ki was calculated from the IC50 values using the Cheng–Prusoff equation (Ki = IC50/[S]/KM) for competitive reversible inhibitors[66].
The stability of the inhibitors was measured according to a modified procedure from ref. [67]. […] At indicated timepoints, 100 µL samples were taken and mixed with 200 µL of ethanol to precipitate proteins. […] The supernatant was aspirated and analyzed using analytical HPLC. The residual inhibitory constants Ki after incubation was assessed by mixing serial dilutions of the inhibitor with recombinant TMPRSS2 as described above.
were mixed with recombinant TMPRSS2, followed by the addition of the fluorogenic reference
Shown are the means ± SD of n=1 experiment performed in triplicates.

[2] = system: lentiviral pseudoparticles carrying SARS-CoV-2 Beta (B.1.351) spike, Caco-2 cells; type: cell-based; conditions: for SARS-CoV-2 spike driven entry, Mean (0 nM = 100): Fig. 5c
factor Xa = biological target: T2, factor Xa (Homo sapiens, UniProt P00742); assay: Enzyme inhibition assay with purified factor Xa (Ki, dose-response); type: biochemical; conditions: for factor Xa activity, Mean (Fig. 2d): normalized
T2 construct: purchased Bio-Techne GmbH (Wiesbaden, Germany)
T2 sequence (P00742 235-488 limits assumed): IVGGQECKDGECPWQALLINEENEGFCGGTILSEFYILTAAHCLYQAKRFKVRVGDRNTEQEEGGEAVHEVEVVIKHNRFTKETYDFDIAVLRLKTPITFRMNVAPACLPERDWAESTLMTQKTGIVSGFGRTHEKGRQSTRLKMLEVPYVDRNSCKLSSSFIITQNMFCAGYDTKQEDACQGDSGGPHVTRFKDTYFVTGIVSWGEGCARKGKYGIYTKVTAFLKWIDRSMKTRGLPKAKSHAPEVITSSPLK
T2 sequence (P00742 41-179 partner limits assumed): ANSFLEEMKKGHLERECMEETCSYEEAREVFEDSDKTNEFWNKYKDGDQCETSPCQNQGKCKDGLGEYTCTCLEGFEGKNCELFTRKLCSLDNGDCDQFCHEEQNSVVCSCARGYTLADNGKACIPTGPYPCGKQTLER
From the text: Recombinant human TMPRSS2 was purchased from Creative BioMart (New York, USA) or LSBio (Seattle, USA), factor Xa was obtained from Bio-Techne GmbH (Wiesbaden, Germany). Recombinant human thrombin and matriptase protein were purchased from R&D Systems (Minneapolis, MN, USA).

[3] = system: SARS-CoV-2 Wuhan-Hu-1, Caco-2 cells; type: cell-based

## CN(C)C(=O)COC(=O)Cc1ccc(OC(=O)c2ccc(NC(=N)N)cc2)cc1 [CM, camostat mesylate, reference compound]
[1]; 0.05 nM
  matriptase activity, Mean (Fig. 2b): 100.491
[1]; 0.1 nM
  matriptase activity, Mean (Fig. 2b): 98.1997
[1]; 0.2 nM
  matriptase activity, Mean (Fig. 2b): 86.1702
[1]; 1 nM
  matriptase activity, Mean (Fig. 2b): 58.838
[1]; 10 nM
  matriptase activity, Mean (Fig. 2b): 4.828
[1]; 1000 nM
  matriptase activity, Mean (Fig. 2b): 0.2455
[1]; 50000 nM
  matriptase activity, Mean (Fig. 2b): 0.08183
[1]; 500000 nM
  matriptase activity, Mean (Fig. 2b): 0.1637
[1]; 30 min preincubation, substrate Boc-Gln-Ala-Arg-AMC
  Ki: 0.0006 µM
TMPRSS2; inhibitor 0.0167 nM, 0 min in cell culture medium
  Residual TMPRSS2 activity, Mean (0 nM = 100): 104.51
TMPRSS2; inhibitor 0.0167 nM, 30 min in cell culture medium
  Residual TMPRSS2 activity, Mean (0 nM = 100): 108.071
TMPRSS2; inhibitor 0.0167 nM, 60 min in cell culture medium
  Residual TMPRSS2 activity, Mean (0 nM = 100): 94.6283
TMPRSS2; inhibitor 0.0167 nM, 120 min in cell culture medium
  Residual TMPRSS2 activity, Mean (0 nM = 100): 101.99
TMPRSS2; inhibitor 0.0167 nM, 24 h in cell culture medium
  Residual TMPRSS2 activity, Mean (0 nM = 100): 104.987
TMPRSS2; inhibitor 0.0167 nM, 10 d in cell culture medium
  Residual TMPRSS2 activity, Mean (0 nM = 100): 98.7798
TMPRSS2; inhibitor 0.0167 nM, positive ctrl
  Residual TMPRSS2 activity, Mean (0 nM = 100): 112.676
TMPRSS2; inhibitor 0.167 nM, 0 min in cell culture medium
  Residual TMPRSS2 activity, Mean (0 nM = 100): 93.733
TMPRSS2; inhibitor 0.167 nM, 30 min in cell culture medium
  Residual TMPRSS2 activity, Mean (0 nM = 100): 95.4083
TMPRSS2; inhibitor 0.167 nM, 60 min in cell culture medium
  Residual TMPRSS2 activity, Mean (0 nM = 100): 77.5396
TMPRSS2; inhibitor 0.167 nM, 120 min in cell culture medium
  Residual TMPRSS2 activity, Mean (0 nM = 100): 90.8064
TMPRSS2; inhibitor 0.167 nM, 24 h in cell culture medium
  Residual TMPRSS2 activity, Mean (0 nM = 100): 102.761
TMPRSS2; inhibitor 0.167 nM, 10 d in cell culture medium
  Residual TMPRSS2 activity, Mean (0 nM = 100): 99.2067
TMPRSS2; inhibitor 0.167 nM, positive ctrl
  Residual TMPRSS2 activity, Mean (0 nM = 100): 96.1679
TMPRSS2; inhibitor 1.665 nM, 0 min in cell culture medium
  Residual TMPRSS2 activity, Mean (0 nM = 100): 49.6948
TMPRSS2; inhibitor 1.665 nM, 30 min in cell culture medium
  Residual TMPRSS2 activity, Mean (0 nM = 100): 47.8364
TMPRSS2; inhibitor 1.665 nM, 60 min in cell culture medium
  Residual TMPRSS2 activity, Mean (0 nM = 100): 26.9293
TMPRSS2; inhibitor 1.665 nM, 120 min in cell culture medium
  Residual TMPRSS2 activity, Mean (0 nM = 100): 28.8645
TMPRSS2; inhibitor 1.665 nM, 24 h in cell culture medium
  Residual TMPRSS2 activity, Mean (0 nM = 100): 90.2986
TMPRSS2; inhibitor 1.665 nM, 10 d in cell culture medium
  Residual TMPRSS2 activity, Mean (0 nM = 100): 96.8623
TMPRSS2; inhibitor 1.665 nM, positive ctrl
  Residual TMPRSS2 activity, Mean (0 nM = 100): 28.3437
TMPRSS2; inhibitor 16.65 nM, 0 min in cell culture medium
  Residual TMPRSS2 activity, Mean (0 nM = 100): 3.839
TMPRSS2; inhibitor 16.65 nM, 30 min in cell culture medium
  Residual TMPRSS2 activity, Mean (0 nM = 100): 20.3269
TMPRSS2; inhibitor 16.65 nM, 60 min in cell culture medium
  Residual TMPRSS2 activity, Mean (0 nM = 100): 1.937
TMPRSS2; inhibitor 16.65 nM, 120 min in cell culture medium
  Residual TMPRSS2 activity, Mean (0 nM = 100): 2.211
TMPRSS2; inhibitor 16.65 nM, 24 h in cell culture medium
  Residual TMPRSS2 activity, Mean (0 nM = 100): 42.5007
TMPRSS2; inhibitor 16.65 nM, 10 d in cell culture medium
  Residual TMPRSS2 activity, Mean (0 nM = 100): 95.3646
TMPRSS2; inhibitor 16.65 nM, positive ctrl
  Residual TMPRSS2 activity, Mean (0 nM = 100): 3.3573
TMPRSS2; inhibitor 166.5 nM, 0 min in cell culture medium
  Residual TMPRSS2 activity, Mean (0 nM = 100): -1.499
TMPRSS2; inhibitor 166.5 nM, 30 min in cell culture medium
  Residual TMPRSS2 activity, Mean (0 nM = 100): -2.333
TMPRSS2; inhibitor 166.5 nM, 60 min in cell culture medium
  Residual TMPRSS2 activity, Mean (0 nM = 100): -2.406
TMPRSS2; inhibitor 166.5 nM, 120 min in cell culture medium
  Residual TMPRSS2 activity, Mean (0 nM = 100): -2.5978
TMPRSS2; inhibitor 166.5 nM, 24 h in cell culture medium
  Residual TMPRSS2 activity, Mean (0 nM = 100): 5.263
TMPRSS2; inhibitor 166.5 nM, 10 d in cell culture medium
  Residual TMPRSS2 activity, Mean (0 nM = 100): 97.9296
TMPRSS2; inhibitor 166.5 nM, positive ctrl
  Residual TMPRSS2 activity, Mean (0 nM = 100): -2.042
TMPRSS2; inhibitor 1665 nM, 0 min in cell culture medium
  Residual TMPRSS2 activity, Mean (0 nM = 100): -4.334
TMPRSS2; inhibitor 1665 nM, 30 min in cell culture medium
  Residual TMPRSS2 activity, Mean (0 nM = 100): -4.917
TMPRSS2; inhibitor 1665 nM, 60 min in cell culture medium
  Residual TMPRSS2 activity, Mean (0 nM = 100): -4.534
TMPRSS2; inhibitor 1665 nM, 120 min in cell culture medium
  Residual TMPRSS2 activity, Mean (0 nM = 100): -4.182
TMPRSS2; inhibitor 1665 nM, 24 h in cell culture medium
  Residual TMPRSS2 activity, Mean (0 nM = 100): 0.9545
TMPRSS2; inhibitor 1665 nM, 10 d in cell culture medium
  Residual TMPRSS2 activity, Mean (0 nM = 100): 88.1928
TMPRSS2; inhibitor 1665 nM, positive ctrl
  Residual TMPRSS2 activity, Mean (0 nM = 100): -4.2458
[2]; Caco-2 cells, luciferase 2 days post transduction, read-out: IC50 pseudotyped lentivirus Beta
  IC50: 0.156 µM
[2]; compound 3.2 nM
  SARS-CoV-2 spike driven entry, Mean (0 nM = 100): 69.473
[2]; compound 16 nM
  SARS-CoV-2 spike driven entry, Mean (0 nM = 100): 73.209
[2]; compound 80 nM
  SARS-CoV-2 spike driven entry, Mean (0 nM = 100): 64.2815
[2]; compound 400 nM
  SARS-CoV-2 spike driven entry, Mean (0 nM = 100): 45.014
[2]; compound 2000 nM
  SARS-CoV-2 spike driven entry, Mean (0 nM = 100): 20.732
[2]; compound 10000 nM
  SARS-CoV-2 spike driven entry, Mean (0 nM = 100): 4.9565
[2]; compound 50000 nM
  SARS-CoV-2 spike driven entry, Mean (0 nM = 100): 3.2315
Factor Xa; 0.04 nM, 0 nM = 100
  factor Xa activity, Mean (Fig. 2d): 85.6127
Factor Xa; 0.2 nM, 0 nM = 100
  factor Xa activity, Mean (Fig. 2d): 89.6222
Factor Xa; 2 nM, 0 nM = 100
  factor Xa activity, Mean (Fig. 2d): 92.4525
Factor Xa; 20 nM, 0 nM = 100
  factor Xa activity, Mean (Fig. 2d): 96.9338
Factor Xa; 200 nM, 0 nM = 100
  factor Xa activity, Mean (Fig. 2d): 78.0652
Factor Xa; 1000 nM
  factor Xa activity, Mean (Fig. 2d): 72.1688
Factor Xa; 10000 nM, 0 nM = 100
  factor Xa activity, Mean (Fig. 2d): 33.4905
Factor Xa; 100000 nM, 0 nM = 100
  factor Xa activity, Mean (Fig. 2d): 14.8585
Factor Xa; 30 min preincubation, substrate Bz-Ile-Glu-Gly-Arg-pNA
  Ki: 1.79 µM
[3]; read-out: IC50 SARS-CoV-2 Wuhan-Hu-1
  IC50: 3.62 µM
[3]; read-out: IC50 SARS-CoV-2 Wuhan-Hu-1 (text)
  IC50: 3.6 µM
